Values after ≈ are worked out from the molar mass of the structure shown.
Experiments:
[1] = test system: P. cepacia 23; assay: MIC, agar plate dilution method; format: cell-based, Pseudomonas cepacia; conditions: for MIC: Burkholderia cepacia, P. cepacia 23, 10^6 CFU/ml, Sensitivity Disk Agar, read-out: Minimum Inhibitory Concentration; for antibacterial activity relative to the compound of Reference Example: Pseudomonas cepacia 23
Protocol: (§1) The minimum inhibitory concentrations (MIC: μg/ml) of the compounds of the present invention against various microorganisms were measured by an agar plate dilution method (inoculum size: 10^6 CFU/ml) by using Sensitivity Disk Agar (Nissui) in comparison with Cefotaxime and Ceftazidime as comparative compounds.

[2] = test system: P. maltophilia IID 1275; assay: MIC, agar plate dilution method; format: cell-based, Pseudomonas maltophilia; conditions: for antibacterial activity relative to the compound of Reference Example: Pseudomonas maltophilia resistant to all cephalosporins; for MIC: Stenotrophomonas maltophilia, IID1275, P. maltophilia IID 1275, 10^6 CFU/ml, Sensitivity Disk Agar, read-out: Minimum Inhibitory Concentration
Protocol: as §1

[3] = test system: Gram-positive bacteria and Gram-negative bacteria; assay: antibacterial activity, general statement; format: cell-based; conditions: sensitive and resistant bacteria
Protocol: as §1

[4] = test system: E. cloaceae Nek 39; assay: MIC, agar plate dilution method; format: cell-based; conditions: E. cloaceae Nek 39; 10^6 CFU/ml; Sensitivity Disk Agar; read-out: Minimum Inhibitory Concentration
Protocol: as §1

[5] = test system: A. calcoaceticus No. 14; assay: MIC, agar plate dilution method; format: cell-based; conditions: Acinetobacter calcoaceticus; for MIC: A. calcoaceticus No. 14, 10^6 CFU/ml, Sensitivity Disk Agar, read-out: Minimum Inhibitory Concentration
Protocol: as §1

[6] = test system: P. vulgaris No. 33; assay: MIC, agar plate dilution method; format: cell-based; conditions: Proteus vulgaris; P. vulgaris No. 33; 10^6 CFU/ml; Sensitivity Disk Agar; read-out: Minimum Inhibitory Concentration
Protocol: as §1

[7] = test system: K. pneumoniae No. 42; assay: MIC, agar plate dilution method; format: cell-based; conditions: Klebsiella pneumoniae; K. pneumoniae No. 42; 10^6 CFU/ml; Sensitivity Disk Agar; read-out: Minimum Inhibitory Concentration
Protocol: as §1

[8] = test system: E. coli ML1410/Rte16; assay: MIC, agar plate dilution method; format: cell-based; conditions: Escherichia coli, ML1410/RTE16, read-out: Minimum Inhibitory Concentration
Protocol: as §1

[9] = test system: E. coli CSH; assay: MIC, agar plate dilution method; format: cell-based; conditions: Escherichia coli, read-out: Minimum Inhibitory Concentration
Protocol: as §1

[10] = test system: P. vulgaris OB1043; assay: MIC, agar plate dilution method; format: cell-based; conditions: Proteus vulgaris; P. vulgaris OB1043; 10^6 CFU/ml; Sensitivity Disk Agar; read-out: Minimum Inhibitory Concentration
Protocol: as §1

[11] = test system: E. coli CSH2; assay: MIC, agar plate dilution method; format: cell-based; conditions: Escherichia coli, 10^6 CFU/ml, Sensitivity Disk Agar, read-out: Minimum Inhibitory Concentration
Protocol: as §1

[12] = test system: E. coli NIHJJC-2; assay: MIC, agar plate dilution method; format: cell-based; conditions: Escherichia coli, NIHJJC2; E. coli NIHJJC-2; 10^6 CFU/ml; Sensitivity Disk Agar; read-out: Minimum Inhibitory Concentration
Protocol: as §1

[13] = test system: E. coli W3630/Rms212; assay: MIC, agar plate dilution method; format: cell-based; conditions: Escherichia coli, W3630/RMS212, read-out: Minimum Inhibitory Concentration
Protocol: as §1

[14] = test system: E. coli C/Rms149; assay: MIC, agar plate dilution method; format: cell-based; conditions: Escherichia coli, read-out: Minimum Inhibitory Concentration
Protocol: as §1

[15] = test system: S. marcescens No. 16-2; assay: MIC, agar plate dilution method; format: cell-based; conditions: Serratia marcescens, NO.162; S. marcescens No. 16-2; 10^6 CFU/ml; Sensitivity Disk Agar; read-out: Minimum Inhibitory Concentration
Protocol: as §1

[16] = test system: S. aureus JS-1; assay: MIC, agar plate dilution method; format: cell-based; conditions: Staphylococcus aureus, JS1; S. aureus JS-1; 10^6 CFU/ml; Sensitivity Disk Agar; read-out: Minimum Inhibitory Concentration
Protocol: as §1

[17] = test system: P. mirabilis JY10; assay: MIC, agar plate dilution method; format: cell-based; conditions: Proteus mirabilis; P. mirabilis JY10; 10^6 CFU/ml; Sensitivity Disk Agar; read-out: Minimum Inhibitory Concentration
Protocol: as §1

[18] = test system: E. coli W3630/Rms213; assay: MIC, agar plate dilution method; format: cell-based; conditions: Escherichia coli, W3630/RMS213, read-out: Minimum Inhibitory Concentration
Protocol: as §1

[19] = test system: C. freundii No. 7; assay: MIC, agar plate dilution method; format: cell-based; conditions: Citrobacter freundii; C. freundii No. 7; 10^6 CFU/ml; Sensitivity Disk Agar; read-out: Minimum Inhibitory Concentration
Protocol: as §1

[20] = test system: S. aureus NIHJJC-1; assay: MIC, agar plate dilution method; format: cell-based; conditions: Staphylococcus aureus, NIHJJC1; S. aureus NIHJJC-1; 10^6 CFU/ml; Sensitivity Disk Agar; read-out: Minimum Inhibitory Concentration
Protocol: as §1

[21] = test system: P. aeruginosa AKR17; assay: MIC, agar plate dilution method; format: cell-based, Pseudomonas aeruginosa; conditions: for antibacterial activity relative to the compound of Reference Example: Pseudomonas aeruginosa AKR-17, resistant to all cephalosporins including Ceftazidime; for MIC: Pseudomonas aeruginosa, P. aeruginosa AKR17, 10^6 CFU/ml, Sensitivity Disk Agar, read-out: Minimum Inhibitory Concentration
Protocol: as §1

[22] = test system: P. aeruginosa AK109; assay: MIC, agar plate dilution method; format: cell-based, Pseudomonas aeruginosa; conditions: for antibacterial activity relative to the compound of Reference Example: Pseudomonas aeruginosa AK109; for MIC: Pseudomonas aeruginosa, P. aeruginosa AK109, 10^6 CFU/ml, Sensitivity Disk Agar, read-out: Minimum Inhibitory Concentration
Protocol: as §1

With `C[N+]1(CC2=C(C(=O)[O-])N3C(=O)C(NC(=O)C(=NOC4CCCC4)c4csc(N)n4)C3SC2)Cc2cc(O)c(O)cc2C1` (stereo not drawn) [Ex. 13-D, 7-[(Z)-2-(2-aminothiazol-4-yl)-2-cyclopentyloxyiminoacetamido]-3-(5,6-dihydroxy-2-methyl-2-isoindolinium)methyl-3-cephem-4-carboxylate] the MIC [1] was 0.1 µg/mL (≈ 0.163 µM), the “antibacterial activity relative to the compound of Reference Example” value [1] was “at least 32 times” and the “antibacterial activity relative to the compound of Reference Example” value [2] was “at least twice as strong”. The MIC [2] was 12.5 µg/mL (≈ 20.3 µM), the “antibacterial activity (in words)” value [3] was “particularly strong antibacterial activities” and the MIC [4] was 0.05 µg/mL (≈ 0.0813 µM). For the same molecule, the “antibacterial activity relative to the compound of Reference Example” value [5] was “at least 32 times”, the MIC [5] was 0.78 µg/mL (≈ 1.27 µM) and the MIC [6] was 0.1 µg/mL (≈ 0.163 µM). For the same molecule, the MIC [7] was 0.1 µg/mL (≈ 0.163 µM), the MIC [8] was 0.05 µg/mL (≈ 0.0813 µM) and the MIC [9] was 0.1 µg/mL (≈ 0.163 µM). The MIC [10] was 0.2 µg/mL (≈ 0.325 µM), the MIC [11] was 0.1 µg/mL (≈ 0.163 µM) and the MIC [12] was 0.05 µg/mL (≈ 0.0813 µM). It also gave an MIC [13] of 0.025 µg/mL (≈ 0.0407 µM), an MIC [14] of 0.05 µg/mL (≈ 0.0813 µM) and an MIC [15] of 0.78 µg/mL (≈ 1.27 µM). For the same molecule, the MIC [16] was 12.5 µg/mL (≈ 20.3 µM), the MIC [17] was 0.05 µg/mL (≈ 0.0813 µM) and the MIC [18] was 0.05 µg/mL (≈ 0.0813 µM). The MIC [19] was 1.56 µg/mL (≈ 2.54 µM), the MIC [20] was 3.12 µg/mL (≈ 5.08 µM) and the “antibacterial activity relative to the compound of Reference Example” value [21] was “at least 32 times”. For the same molecule, the MIC [21] was 0.39 µg/mL (≈ 0.634 µM), the “antibacterial activity relative to the compound of Reference Example” value [22] was “at least 16 times” and the MIC [22] was 0.05 µg/mL (≈ 0.0813 µM).
`CC(C)(ON=C(C(=O)NC1C(=O)N2C(C(=O)[O-])=C(C[N+]3(C)Cc4cc(O)c(O)cc4C3)CSC12)c1csc(N)n1)C(=O)O` (stereo not drawn) [Ex. 7-E, 7-[(Z)-2-(2-aminothiazol-4-yl)-2-(1-carboxy-1-methylethoxyimino)acetamido]-3-(5,6-dihydroxy-methyl-2-methyl-2-isoindolinium)methyl-3-cephem-4-carboxylate] was tested, and the MIC [1] was at most 0.05 µg/mL, the “antibacterial activity relative to the compound of Reference Example” value [1] was “at least 32 times” and the “antibacterial activity relative to the compound of Reference Example” value [2] was “at least twice as strong”. For the same molecule, the MIC [2] was 3.12 µg/mL (≈ 4.93 µM), the “antibacterial activity (in words)” value [3] was “particularly strong antibacterial activities” and the MIC [4] was at most 0.05 µg/mL. For the same molecule, the “antibacterial activity relative to the compound of Reference Example” value [5] was “at least 32 times”, the MIC [5] was 0.1 µg/mL (≈ 0.158 µM) and the MIC [6] was 0.2 µg/mL (≈ 0.316 µM). It also gave an MIC [7] of at most 0.05 µg/mL, an MIC [8] of at most 0.05 µg/mL and an MIC [9] of 0.1 µg/mL (≈ 0.158 µM). The MIC [10] was 0.1 µg/mL (≈ 0.158 µM), the MIC [11] was at most 0.05 µg/mL and the MIC [12] was at most 0.05 µg/mL. The MIC [13] was at most 0.05 µg/mL, the MIC [14] was at most 0.05 µg/mL and the MIC [15] was 0.39 µg/mL (≈ 0.616 µM). The MIC [16] was over 25 µg/mL, the MIC [17] was 0.1 µg/mL (≈ 0.158 µM) and the MIC [18] was at most 0.05 µg/mL. For the same molecule, the MIC [19] was 0.78 µg/mL (≈ 1.23 µM), the MIC [20] was 25 µg/mL (≈ 39.5 µM) and the “antibacterial activity relative to the compound of Reference Example” value [21] was “at least 32 times”. The MIC [21] was at most 0.05 µg/mL, the “antibacterial activity relative to the compound of Reference Example” value [22] was “at least 16 times” and the MIC [22] was at most 0.05 µg/mL.
